Assay results: ChEMBL document CHEMBL5131485, “Synthesis and biological activity evaluation of novel 2,6,9-trisubstituted purine conjugates as potential protein kinases inhibitors” (Bioorg Med Chem Lett, 2022)
The source made the active and inactive calls. The calls are words filed in the database; no cut-off is given here.

Legend:
[1] = molecular target: Cyclin-dependent kinase 2 (Homo sapiens, UniProt P24941)
Description: Inhibition of CDK2 (unknown origin)

[2] = molecular target: Receptor-type tyrosine-protein kinase FLT3 (Homo sapiens, UniProt P36888, ITD)
Receptor-type tyrosine-protein kinase FLT3, sequence (P36888 whole entry, looked up, change not shown): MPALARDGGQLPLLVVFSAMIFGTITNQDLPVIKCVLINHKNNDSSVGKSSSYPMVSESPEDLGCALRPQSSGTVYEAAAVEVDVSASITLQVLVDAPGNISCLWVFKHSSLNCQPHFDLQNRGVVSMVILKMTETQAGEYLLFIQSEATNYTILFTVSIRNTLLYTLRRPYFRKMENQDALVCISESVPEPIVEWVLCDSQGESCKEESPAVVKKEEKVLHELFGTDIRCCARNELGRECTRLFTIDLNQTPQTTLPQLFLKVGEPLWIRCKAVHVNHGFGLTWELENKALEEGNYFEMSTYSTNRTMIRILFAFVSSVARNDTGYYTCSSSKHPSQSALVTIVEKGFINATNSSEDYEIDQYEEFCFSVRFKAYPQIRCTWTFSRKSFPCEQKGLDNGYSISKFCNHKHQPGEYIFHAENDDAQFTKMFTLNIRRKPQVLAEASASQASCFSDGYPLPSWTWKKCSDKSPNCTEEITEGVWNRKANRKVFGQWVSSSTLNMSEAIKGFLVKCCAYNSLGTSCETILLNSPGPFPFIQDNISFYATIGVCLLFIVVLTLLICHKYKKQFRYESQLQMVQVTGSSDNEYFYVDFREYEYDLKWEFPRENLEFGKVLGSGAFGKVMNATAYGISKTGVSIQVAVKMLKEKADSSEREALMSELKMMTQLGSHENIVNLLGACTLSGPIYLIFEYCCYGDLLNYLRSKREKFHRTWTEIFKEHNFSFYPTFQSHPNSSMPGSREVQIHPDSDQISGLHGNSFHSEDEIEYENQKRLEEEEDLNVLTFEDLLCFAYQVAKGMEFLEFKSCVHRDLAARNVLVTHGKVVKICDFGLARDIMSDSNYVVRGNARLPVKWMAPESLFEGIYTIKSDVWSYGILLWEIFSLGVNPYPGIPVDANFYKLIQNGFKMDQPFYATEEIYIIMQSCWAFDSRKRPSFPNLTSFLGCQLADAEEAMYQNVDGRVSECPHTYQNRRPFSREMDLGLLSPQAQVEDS
Description: Inhibition of FLT3 ITD mutant (unknown origin)

[3] = tested on: Receptor-type tyrosine-protein kinase FLT3 (Homo sapiens), P36888 [UNDEFINED MUTATION]; details: MV4-11, dose 5-25 nM, time 1.0 hrs
Receptor-type tyrosine-protein kinase FLT3 (Homo sapiens), P36888 [UNDEFINED MUTATION], sequence (P36888 whole entry, looked up, change not shown): as above

[4] = tested on: Receptor-type tyrosine-protein kinase FLT3 (Homo sapiens), P36888 [UNDEFINED MUTATION]; details: MV4-11, dose 5-25 nM, time 1.0 hrs; remark: listed apart in the source
Kasumi 1 = test: cells; details: Homo sapiens
Description: Antiproliferative activity against human Kasumi 1 cells harboring N822K KIT mutant

[5] = molecular target: Platelet-derived growth factor receptor alpha (Homo sapiens, UniProt P16234)
Platelet-derived growth factor receptor alpha, sequence (P16234 whole entry): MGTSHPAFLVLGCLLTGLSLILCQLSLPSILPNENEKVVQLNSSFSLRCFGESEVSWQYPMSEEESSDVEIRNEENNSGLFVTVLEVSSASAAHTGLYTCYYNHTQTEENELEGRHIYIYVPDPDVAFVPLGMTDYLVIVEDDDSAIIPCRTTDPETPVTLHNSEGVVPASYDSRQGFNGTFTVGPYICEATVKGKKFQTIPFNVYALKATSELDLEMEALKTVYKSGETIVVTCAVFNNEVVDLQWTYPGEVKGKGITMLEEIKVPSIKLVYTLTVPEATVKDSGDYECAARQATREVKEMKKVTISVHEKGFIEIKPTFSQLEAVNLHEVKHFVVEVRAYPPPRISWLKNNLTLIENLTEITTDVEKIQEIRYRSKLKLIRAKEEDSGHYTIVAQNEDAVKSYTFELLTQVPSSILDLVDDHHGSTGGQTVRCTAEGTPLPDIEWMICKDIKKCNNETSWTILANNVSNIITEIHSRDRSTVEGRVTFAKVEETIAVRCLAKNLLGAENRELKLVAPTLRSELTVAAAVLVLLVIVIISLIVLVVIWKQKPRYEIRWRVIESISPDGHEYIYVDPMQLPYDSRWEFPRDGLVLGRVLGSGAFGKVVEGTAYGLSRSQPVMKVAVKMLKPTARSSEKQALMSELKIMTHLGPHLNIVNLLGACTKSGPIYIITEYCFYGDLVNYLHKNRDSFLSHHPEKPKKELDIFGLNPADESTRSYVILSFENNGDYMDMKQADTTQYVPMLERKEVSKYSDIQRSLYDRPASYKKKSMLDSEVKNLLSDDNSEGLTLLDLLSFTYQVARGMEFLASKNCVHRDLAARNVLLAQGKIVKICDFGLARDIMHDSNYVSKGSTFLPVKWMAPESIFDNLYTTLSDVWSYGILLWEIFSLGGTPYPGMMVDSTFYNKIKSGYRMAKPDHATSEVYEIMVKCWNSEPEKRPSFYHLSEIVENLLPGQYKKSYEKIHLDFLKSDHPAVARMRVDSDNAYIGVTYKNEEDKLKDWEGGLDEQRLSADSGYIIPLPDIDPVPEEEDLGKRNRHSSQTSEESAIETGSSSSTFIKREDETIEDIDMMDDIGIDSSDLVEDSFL
Description: Inhibition of PDGFRalpha (unknown origin)

[6] = tested on: Receptor-type tyrosine-protein kinase FLT3 (Homo sapiens), P36888 [UNDEFINED MUTATION]; details: MV4-11, dose 5-25 nM, time 1.0 hrs; remark: listed apart in the source
K562 = test: cells; details: Homo sapiens
Description: Antiproliferative activity against human K562 cells

MV4-11 [7] = test: cells; details: Homo sapiens
Description: Antiproliferative activity against human MV4-11 cells expressing FLT3-ITD mutant

EOL1 = test: cells; details: Homo sapiens
Description: Antiproliferative activity against human EOL1 cells expressing IP1L1-PDGFRA fusion protein

MV4-11 [8] = assay type: functional, cell-based; details: Homo sapiens, dose 1-125 nM, time 24.0 hrs

NCCCCNC(=O)c1ccc(Nc2nc(N[C@H]3CC[C@H](N)CC3)nc3c2ncn3C2CCCC2)cc1
IC50 [1]: 20 nM | IC50 [2]: 3 nM | inhibition [3]: Active | inhibition [4]: Active | GI50 (Kasumi 1): 4050 nM | IC50 [5]: 36 nM | inhibition [6]: Active | GI50 (K562): 10.8 µM | GI50 (MV4-11 [7]): 23 nM | GI50 (EOL1): 15 nM | Activity (MV4-11 [8]): Active

NCCCNCCCCNC(=O)c1ccc(CNc2nc(N[C@H]3CC[C@H](N)CC3)nc3c2ncn3C2CCCC2)cc1
IC50 [1]: 25 nM | IC50 [2]: 1310 nM | inhibition [4]: Active | GI50 (Kasumi 1): 1920 nM | IC50 [5]: 19800 nM | GI50 (K562): 7.19 µM | GI50 (MV4-11 [7]): 602 nM | GI50 (EOL1): 799 nM

N[C@H]1CC[C@H](Nc2nc(Nc3ccccc3)c3ncn(C4CCCC4)c3n2)CC1
IC50 [1]: 7 nM | IC50 [2]: 5 nM | inhibition [3]: Active | inhibition [4]: Active | GI50 (Kasumi 1): 278 nM | IC50 [5]: 196 nM | inhibition [6]: Active | GI50 (K562): 2.45 µM | GI50 (MV4-11 [7]): 23 nM | GI50 (EOL1): 41 nM | Activity (MV4-11 [8]): Active

NCCCNCCCCNCCCNc1ccc(Nc2nc(N[C@H]3CC[C@H](N)CC3)nc3c2ncn3C2CCCC2)cc1
IC50 [1]: 31 nM | IC50 [2]: 10 nM | inhibition [3]: Active | inhibition [4]: Active | GI50 (Kasumi 1): 647 nM | IC50 [5]: 203 nM | inhibition [6]: Active | GI50 (K562): 0.896 µM | GI50 (MV4-11 [7]): 4 nM | GI50 (EOL1): 11 nM

NCCCNCCCCNC(=O)c1ccc(Nc2nc(N[C@H]3CC[C@H](N)CC3)nc3c2ncn3C2CCCC2)cc1
IC50 [1]: 19 nM | IC50 [2]: 4 nM | inhibition [3]: Active | inhibition [4]: Active | GI50 (Kasumi 1): 2910 nM | IC50 [5]: 41 nM | inhibition [6]: Active | GI50 (K562): 7.37 µM | GI50 (MV4-11 [7]): 25 nM | GI50 (EOL1): 17 nM | Activity (MV4-11 [8]): Active

NCCCNCCCCNc1ccc(Nc2nc(N[C@H]3CC[C@H](N)CC3)nc3c2ncn3C2CCCC2)cc1
IC50 [1]: 21 nM | IC50 [2]: 6 nM | inhibition [3]: Active | inhibition [4]: Active | GI50 (Kasumi 1): 1850 nM | IC50 [5]: 219 nM | inhibition [6]: Active | GI50 (K562): 2.79 µM | GI50 (MV4-11 [7]): 52 nM | GI50 (EOL1): 60 nM | Activity (MV4-11 [8]): Active

NCCCCNc1ccc(Nc2nc(N[C@H]3CC[C@H](N)CC3)nc3c2ncn3C2CCCC2)cc1
IC50 [1]: 17 nM | IC50 [2]: 4 nM | inhibition [3]: Active | inhibition [4]: Active | GI50 (Kasumi 1): 2740 nM | IC50 [5]: 153 nM | inhibition [6]: Active | GI50 (K562): 6.29 µM | GI50 (MV4-11 [7]): 95 nM | GI50 (EOL1): 171 nM | Activity (MV4-11 [8]): Active

NCCCCNC(=O)c1ccc(CNc2nc(N[C@H]3CC[C@H](N)CC3)nc3c2ncn3C2CCCC2)cc1
IC50 [1]: 27 nM | IC50 [2]: 1650 nM | inhibition [4]: Active | GI50 (Kasumi 1): 2560 nM | IC50 [5]: > 20000 nM | GI50 (K562): 8.26 µM | GI50 (MV4-11 [7]): 577 nM | GI50 (EOL1): 676 nM

N[C@H]1CC[C@H](Nc2nc(NCc3ccccc3)c3ncn(C4CCCC4)c3n2)CC1
IC50 [2]: 2510 nM | inhibition [4]: Active | GI50 (Kasumi 1): 988 nM | IC50 [5]: > 20000 nM | GI50 (K562): 4.22 µM | GI50 (MV4-11 [7]): 1140 nM | GI50 (EOL1): 1170 nM

NC(=O)c1ccc(Nc2nc(N[C@H]3CC[C@H](N)CC3)nc3c2ncn3C2CCCC2)cc1
IC50 [1]: 4 nM | IC50 [2]: 2 nM | inhibition [3]: Active | inhibition [4]: Active | GI50 (Kasumi 1): 4180 nM | IC50 [5]: 17 nM | inhibition [6]: Active | GI50 (K562): 6.13 µM | GI50 (MV4-11 [7]): 39 nM | GI50 (EOL1): 40 nM | Activity (MV4-11 [8]): Active
